This is an account of results in patent US20220267394A1, “COMPOUNDS FOR INDUCING TISSUE FORMATION AND USES THEREOF” (HISTIDE AG, priority 2015, published 2022).

Where no end group is shown, it is not given here.

Series [1] concerns Human Hematopoeitic Stem Cells. The series can be described thus: Differentiation of human hematopoietic stem cells: CD34+ expression by immunostaining. Type of series: cell-based. Particulars: peptides in solution in the cell culture media, 400 ng/mL, 48 hours. The text has this: (§1) The following starting materials and reagents were used: • Apatite ceramics (also called apatite or ceramic in the present invention) were synthetized as described in Mater Res. 2004; 7(4): 625-630. • Titanium was obtained from Goodfellow®. • Hydrogel (poly(acrylamide-co-acrylic acid) gel) was synthetized as described in Langmuir 2011; 27(22):13635-42. • PEEK was obtained from Goodfellow®. • PET (Poly(ethylene terephthalate) was obtained from Goodfellow®. • Type-I collagen sponge was obtained from Sigma®. • Hexane was obtained from Sigma®. • 3-succinimidyl-3-maleimidopropionate (SMP) was obtained from Sigma®. • DMF was obtained from Sigma®. • PBS 1× was obtained from Gibco®. • 3-(ethoxydimethylsilyl)propylamine was obtained from Sigma®. • Ammonium persulfate was obtained from Biorad®. • N,N,N′,N′-tetramethylethylenediamine was obtained from Aldrich®. • Acrylamid was obtained from Merck®. • Acrylic acid was obtained from Merck®. • N,N-methylene-bis-acrylamide was obtained from Merck®. • NaOH was obtained from Aldrich®. • N,N,N′,N′-tetramethylethylenediamine was obtained from Aldrich®. • Dimethylaminopropyl-3-ethylcarbodiimide hydrochloride was obtained from Aldrich®. • N-hydroxysuccinimide was obtained from Aldrich®. • 2-(N-morpholino)-ethane sulfonic acid was obtained from Aldrich®. • MilliQ water: is water characterised in terms of resistivity (typically 18.2 MΩ·cm at 25° C.). • Low glucose Dulbecco's Modified Eagle Medium (DMEM) was obtained from Invitrogen® • Minimum Essential Medium Eagle without ascorbic acid (αMEM) was obtained from Invitrogen®. • All of the cell culture experiments were carried out without any serum in the medium for the first 8 hours of culture. • Osteoblast progenitors or precursor osteoblasts: MC3T3-E1 cells were obtained from ATCC®. These cells were cultured in Alpha-MEM medium supplemented with 10% fetal calf serum (FCS) and 1% penicillin/streptomycin. All cells were used at a low passage number (passage 7), were subconfluently cultured and were seeded at 10^4 cells/cm^2 for the purpose of the experiments. • Human bone marrow Mesenchymal Stem Cells (hMSCs) were obtained from Lonza®. These cells were cultured in Alpha-MEM supplemented with 10% (v/v) FBS and 1% penicillin/streptomycin and incubated in a humidified atmosphere containing 5% (v/v) CO2 at 37° C. All cells were used at a low passage number (passage 2 to 4), were subconfluently cultured and were seeded at 10^4 cells/cm^2 for the purpose of the experiments. • Human adipose Mesenchymal Stem Cells (haMSCs) were obtained from Lonza®. These cells were cultured in Alpha-MEM supplemented with 10% (v/v) FBS and 1% penicillin/streptomycin and incubated in a humidified atmosphere containing 5% (v/v) CO2 at 37° C. All cells were used at a low passage number (passage 3 to 4), were subconfluently cultured and were seeded at 10^4 cells/cm^2 for the purpose of the experiments. • Mouse Hair Follicle Stem Cells were isolated and cultured as described in Methods Mol Biol. 2010; 585:401-20. • Neuron cells are Neuronal Schwann Cells obtained from ATCC®. These cells were cultured in Dulbecco's Modified Eagle's Medium supplemented with 10% (v/v) FBS and 1% penicillin/streptomycin and incubated in a humidified atmosphere containing 5% (v/v) CO2 at 37° C. All cells were used at a low passage number (passage 6-8), were subconfluently cultured and were seeded at 10^4 cells/cm^2 for the purpose of the experiments. • Human umbilical-vein endothelial cells (HUVECs) were purchased from Promocell®. HUVECs were isolated and grown on gelatin coated culture flasks in a complete HUVEC culture medium (IMDM (Invitrogen, France) supplemented with 20% (v/v) fetal bovine serum (FBS) (PAA, France) and 0.4% (v/v) EC growth supplement/heparin kit (Promocell, France)). Cells were subcultured by using trypsin/EDTA (Invitrogen, France) and maintained in a humidified atmosphere containing 5% CO2 at 37° C. These cells were used at a passage number 3 to 5 for the purpose of the experiments. […]

For series [2], the system named is hMSCs. The series can be described thus: Loss of stemness: STRO-1 expression by immunostaining. Type of series: cell-based, human. The gist of the method:
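hMSCs cultured on plastic with GFR-binding peptides in solution (some sequences tested with a bioactive carrier), then fixed, permeabilized and immunostained for Stro-1. Stro-1-positive contact number and area quantified by thresholded image analysis, minimum 30 cells per condition.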

The test system of series [3] is hMSCs. The series can be described thus: CD-105 expression by immunostaining. The series is classed as cell-based, human. Particulars: Table 7, previously reported peptides in solution (not combined with a bioactive carrier). The procedure: For this type of quantification the freeware image analysis ImageJ® software was used. The raw image was first converted to an 8-bit file, and then the unsharp mask feature was used (settings 1:0.2) to remove the image background (rolling ball radius 10). After smoothing, the resulting image, which appears similar to the original photomicrograph but with minimal background, was then converted to a binary image by setting a threshold. Threshold values were determined empirically by selecting a setting, which gave the most accurate binary image for a subset of randomly selected photomicrographs. The cell area was determined by manual delineation on raw fluorescent images. Total contact area and mean contact area per cell were calculated by “analyse particules” in ImageJ®. A minimum of 30 cells per condition were analyzed. Stro-1, CD-34+, and CD-105 expressions were determined using this procedure.
Likewise, using the method detailed in the description, the RMSD of another 27 previously reported peptide sequences have been determined (Table 7) and correlated with the expressions of STRO-1 and CD-105 in solution. […] Data were obtained with peptides in solution (i.e. not combined with a bioactive carrier).

Series [4] is described as follows: Stability of non-covalent deposit of FITC-labelled peptides on apatite ceramics or type-I collagen sponge. Type of series: physicochemical. The conditions noted are these: non-covalent coating, after 3, 7 or 10 days. Here is the method: Non-covalent modifications of the materials were performed in air atmosphere at room temperature. The non-covalent coating strategy consisted in using a mixture of inducing peptide (SEQ ID NO: 23; concentration of 1×10^−3M) with an apatite ceramics implant or a mixture of inducing peptide (SEQ ID NO: 22; concentration of 1×10^−3M) with a type-I collagen sponge. The non-covalently coated conventional materials were characterized by using fluorescent peptides (Here SEQ ID NO: 22 and 23 covalently bound to fluorescein isothiocyanate (FITC), FIG. 6). The results shown here in FIG. 6 were obtained from experiments performed with apatite ceramics and a type-I collagen sponge. […] Indeed, after 3, 7 or 10 days, the osteogenic peptides were still coupled to the ceramics or the type-I collagen (FIGS. 7a and b).

In a further series the test system is Hair Follicle Stem Cells. The series can be described thus: Loss of quiescence and activation of hair follicle stem cells on 73 kPa hydrogels (Sox2, BMP-6 release). Type of series: cell-based, mouse. The conditions noted are these: 73 kPa hydrogels covalently modified with peptides.
Excerpt: as §1, with “C.” for “C. All cells were used at a low passage number (passage 3 to 4), were subconfluently cultured and were seeded at 10^4 cells/cm^2 for the purpose of the experiments. • Mouse Hair Follicle Stem Cells were isolated and cultured as described in Methods Mol Biol. 2010; 585:401-20. • Neuron cells are Neuronal Schwann Cells obtained from ATCC®. These cells were cultured in Dulbecco's Modified Eagle's Medium supplemented with 10% (v/v) FBS and 1% penicillin/streptomycin and incubated in a humidified atmosphere containing 5% (v/v) CO2 at 37° C. All cells were used at a low passage number (passage 6-8), were subconfluently cultured and were seeded at 10^4 cells/cm^2 for the purpose of the experiments. • Human umbilical-vein endothelial cells (HUVECs) were purchased from Promocell®. HUVECs were isolated and grown on gelatin coated culture flasks in a complete HUVEC culture medium (IMDM (Invitrogen, France) supplemented with 20% (v/v) fetal bovine serum (FBS) (PAA, France) and 0.4% (v/v) EC growth supplement/heparin kit (Promocell, France)). Cells were subcultured by using trypsin/EDTA (Invitrogen, France) and maintained in a humidified atmosphere containing 5% CO2 at 37° C. These cells were used at a passage number 3 to 5 for the purpose of the experiments.”

Where [5] appears, read: Table 7, previously reported peptides in solution (not combined with a bioactive carrier).

With “2152 (IPKASSVPQSSSNITMQIMGGGGGGGIGEMSSSVKSSGSL; GFR-binding peptide) [compound 2152]”, in series [1], the “CD34+ Expression (%)” value was found to be 30%.

“2238 (CCAPTELSAISVLYFDDSSNVILKKYEDMVVEACGCR; Comparative sequence) [compound 2238]”: the “STRO-1 expression (%)” value in the series on hMSCs [2] (setting [5]) is 76%. In addition, in the series on hMSCs [3], the “CD-105 expression (%)” value stood at 72%.

On to “2157 (EPSSVSQAAEPLPIVYYRIKPHQGQHEQLSNMIVKSSKSS; GFR-binding peptide) [compound 2157]”, for which, in series [1], the “CD34+ Expression (%)” value amounted to 23%.

In the case of “2150 (PTSSAPTDLRSVKMAKVEIVRKKPIFKEVQVDMVVKASGSH; GFR-binding peptide) [compound 2150]”, the “CD34+ Expression (%)” value in series [1] is recorded as 26%.

As for “2156 (APVKMEPLPTVYYDDMGVPTEQLSNDMVEESGSL; GFR-binding peptide) [compound 2156]”, in series [1], the “CD34+ Expression (%)” value worked out at 25%.

On to “2240 (KPCCAPTELSAISVLYFDDSSNVILKKYEDMVVEACGCR; Peptide reported in US20050250936, SEQ ID NO:119) [compound 2240]”, for which the “STRO-1 expression (%)” value with hMSCs [2] (setting [5]) was determined as 73%. Moreover, the “CD-105 expression (%)” value with hMSCs [3] turned out to be 69%.

In the case of “2151 (PTSSVPTGGRSVKMAKVDKGVVTYKEVQVMVVAESKSS; GFR-binding peptide) [compound 2151]”, the “CD34+ Expression (%)” value in series [1] stood at 24%.

With “2235 (APTALSAISMLYFDESGNVVLRQYEDMVVEG; Peptide reported in US20120244575, SEQ ID NO:4400) [compound 2235]”, the “STRO-1 expression (%)” value with hMSCs [2] (setting [5]) was 77%. In the series on hMSCs [3], the “CD-105 expression (%)” value was found to be 63%.

For the substance “2155 (EPSSSRVRLEPLTTLYYGGGGGGGEQLSNVVEEHSKSS; GFR-binding peptide) [compound 2155]”, in series [1], the “CD34+ Expression (%)” value is reported as 29%.

In the case of “2215 (VPQTLDPLPIIYYVGRNVRVEQLSNMVVRA; Comparative sequence) [compound 2215]”, in the series with hMSCs [2] (setting [5]), the “STRO-1 expression (%)” value stood at 71%. In addition, in the series on hMSCs [3], the “CD-105 expression (%)” value came to 68%.

On to “WWFWGKVPKPSSAPTQLSAISTLYLDEYDKVVLKNYQNMVVR (WWFWGKVPKPXXAPTQLSAISTLYLDEYDKVVLKNYQNMVVR; GFR-binding peptide; MOD_RES (11), (12): Xaa is C or S) [SEQ ID NO: 22]”, for which, in series [4], the “release of peptide from type-I collagen sponge over time” value is on record as “no significant release”.

“42 (CGIPEPSSVPEKTSSLSLLFFDENKNVVLKVYPNM; not fully specified; ends and bridges not checked) [compound 42]”: the “STRO-1 expression (%)” value in the series with hMSCs [2] (Table 8, SEQ ID NO: 1 to 49 tested in combination with a bioactive carrier (titanium, ceramics, collagen, etc.)) came to 28%. Besides, in the series with Hair Follicle Stem Cells, the “BMP-6 release in the cell culture medium” value is on record as “decrease” and the Sox2 protein expression entry is “increase”.

In the case of “2148 (KASSVPQEERPVQMRKIGGGGGGGKKATVMIVRSSKSS; GFR-binding peptide) [compound 2148]”, the “CD34+ Expression (%)” value in series [1] turned out to be 32%.

“2153 (KASSSRVKMSNITVQIMRIKPHQGQHIGEMSVVEEHASGSH; GFR-binding peptide) [compound 2153]”: the “CD34+ Expression (%)” value in series [1] was determined as 22%.

Regarding “2230 (CCVPERLSPISVLFFDNEDNVVLRHYEDMVVDECGCR; Comparative sequence) [compound 2230]”, the “STRO-1 expression (%)” value in the series on hMSCs [2] (setting [5]) came out at 81%. The “CD-105 expression (%)” value in the series on hMSCs [3] is reported as 78%.

Consider “CGIPEPSSVPEKMSSLSILFFDENKNVVLKVYPNM (CGIPEPXXVPEKMSSLSILFFDENKNVVLKVYPNM; GFR-binding peptide; MOD_RES (7), (8): Xaa is C or S) [SEQ ID NO: 41]”, for which, in the series on Hair Follicle Stem Cells, the “BMP-6 release in the cell culture medium” value is on record as “decrease” and the Sox2 protein expression result is on record as “increase”.

For the substance “2154 (VPTAAEPLTMLYYEIVRKKPIFEQLSNMVEHS; GFR-binding peptide) [compound 2154]”, the “CD34+ Expression (%)” value in series [1] is recorded as 21%.

Consider “2147 (IPKASSAPVGQRPVQMRKIDKGVVTYKKATVSSVEESGSL; GFR-binding peptide) [compound 2147]”, for which the “CD34+ Expression (%)” value in series [1] was 27%.

“GTPGPKVPKPSSAPTQLSAISTLYLDEYDKVVLKNYQNMAVR (GTPGPKVPKPXXAPTQLSAISTLYLDEYDKVVLKNYQNMAVR; GFR-binding peptide; MOD_RES (11), (12): Xaa is C or S) [SEQ ID NO: 23]”: the “release of peptide from apatite ceramics over time” value in series [4] is listed as “no significant release”.

Turning to “2149 (VSQAARPVQTRKIDDMGVPTKKATVAAVKS; GFR-binding peptide) [compound 2149]”, the “CD34+ Expression (%)” value in series [1] came out at 28%.
